Measurements taken from patent US10501752B2, “Herbicide tolerant cotton event pDAB4468.19.10.3” (Dow AgroSciences LLC, priority 2012, dated 2019).

Columns and labels:
non-transformed cotton = conditions: rates much lower than the lowest rate tested (1120 g ae/ha); known; cited from earlier work
[1] = system: cotton event pDAB4468.19.10.3; assay: Tolerance to 2,4-D in field trials (percent visual injury); format: in vivo, Gossypium hirsutum; conditions: for Percent visual injury: single post-emergence application, 2-4 leaf
Experimental: The tolerance of cotton event pDAB4468.19.10.3 to post-emergence applications of the phenoxyacetic acid herbicide, 2,4-D, was studied in field trials during the 2010 growing season. Herbicide tolerance was assessed following a single post-emergence application of 2,4-D applied to 2-4 leaf cotton event pDAB4468.19.10.3. The application of 2,4-D on cotton plants at this stage of development represents a herbicide application timing typically utilized to achieve satisfactory weed control by cotton growers.
2,4-D tolerance was measured by assessing cotton plants for injury at 0-1 day after application (DAA), 7-8 DAA, 12-16 DAA, and 24-32 DAA. Measurements for the 0-1 day time increment were taken from 6-24 hours after the application. Injury was assessed by assigning a percent visual injury rating using a linear percentage scale (1-100%) where 0% represents no visible herbicide injury and 100% represents plant death. The ratings were a composite score for any herbicide symptomology including epinasty, chlorosis, leaf necrosis and plant death. Herbicide symptomology present at 0-1 DAA was primarily epinasty and symptoms at later evaluations were primarily chlorosis and necrosis.
(§1) Field trials were conducted at eleven locations across the United States in typical cotton producing areas of Alabama, Arkansas, California, Georgia, Louisiana, Mississippi, North Carolina, South Carolina, and Tennessee. Trials were designed with four replications per treatment. Each replication was separated by a bare-soil alley 10-15 feet wide. Plot size for individual treatments was 2 rows by 20 feet long with rows typically spaced 36-40 inches apart. Experimental treatments consisted of cotton event pDAB4468.19.10.3 sprayed with 2,4-D amine (Weedar 64™, NuFarm, Burr Ridge, Ill.) at either 0, 1120, 2240, or 4480 grams acid equivalent per hectare (g ae/ha) applied in 15 gallons per acre of final spray solution. A non-transformed cotton comparator treatment was not included in these experiments since treatment with 2,4-D at rates much lower than the lowest rate tested (1120 g ae/ha) are known to result in plant death.

[2] = system: cotton event pDAB4468.19.10.3; assay: Agronomic characterization in field trials with and without herbicide applications; format: in vivo, Gossypium hirsutum; conditions: sprayed vs unsprayed event plants; standard field application rates
Description: The agronomic characteristics of cotton event pDAB4468.19.10.3 were quantified in field trials conducted across geographically different locations throughout the cotton belt in 2010. These studies compared the agronomic performance of cotton event pDAB4468.19.10.3 (with and without applications of the herbicides 2,4-D and glufosinate) to the non-transgenic near-isoline control, Coker 310. No agronomically meaningful unintended differences were observed between cotton event pDAB4468.19.10.3 and the Coker 310 control plants. […] Additionally, the agronomic performance of cotton event pDAB4468.19.10.3 was not altered as a result of the application of the herbicides, 2,4-D and glufosinate, as compared to the cotton event pDAB4468.19.10.3 plants which were not sprayed with the herbicide treatments. […]
Seeds of cotton event pDAB4468.19.10.3 and seeds of the near-isoline control line, Coker 310, were planted at a rate of 80 seeds per 20 ft row with a row spacing of 34-38 inches (86.36 cm-96.52 cm). […] The measured agronomic characteristics were equivalent for cotton event pDAB4468.19.10.3 as compared to the Coker 310 near-isoline control plants for all of the agronomic characteristics measured and statistically analyzed. […]

[3] = system: cotton event pDAB4468.19.10.3; assay: Tolerance to glufosinate in field trials (percent visual injury); format: in vivo, Gossypium hirsutum; conditions: for Percent visual injury: single post-emergence application, 6-8 leaf
Experimental: The tolerance of cotton event pDAB4468.19.10.3 to post-emergence applications of glufosinate was studied in field trials during the 2010 growing season. Herbicide tolerance was assessed following a single post-emergence application of glufosinate applied to 6-8 leaf cotton event pDAB4468.19.10.3, which represents a herbicide application timing typically utilized with glufosinate to achieve satisfactory weed control.
Glufosinate tolerance was measured by assessing cotton plants for injury at 2-4 days after application (DAA), 7-9 DAA, 13-19 DAA and 22-29 DAA. Injury was assessed by assigning a percent visual injury rating using a linear percentage scale (1-100) where 0% represents no visible herbicide injury and 100% represents plant death. The ratings were a composite score for any herbicide symptomology including chlorosis, leaf necrosis, stunting and plant death. Herbicide symptomology (where present) was primarily chlorosis and necrosis.
as §1, with “glufosinate ammonium (Ignite 280 SL™, Bayer, Research Triangle, N.C.)” for “2,4-D amine (Weedar 64™, NuFarm, Burr Ridge, Ill.)”, “542, 1084,” for “1120, 2240,”, “2168” for “4480”, “glufosinate” for “2,4-D”, “(542” for “(1120”, “would be expected” for “are known”

O=C(O)COc1ccc(Cl)cc1Cl [2,4-D]
result of treatment of non-transformed cotton (non-transformed cotton): plant death | herbicide injury noted in the field experiments ([1]; 1120-4480 g ae/ha, with the exception of transient epinasty 0-1 DAA): no agronomically-significant herbicide injury | Percent visual injury ([1]; 1120 g ae/ha, 0-1 DAA): 3.6% | Percent visual injury ([1]; 1120 g ae/ha, 7-8 DAA): 1.4% | Percent visual injury ([1]; 1120 g ae/ha, 12-16 DAA): 0.6% | Percent visual injury ([1]; 1120 g ae/ha, 24-32 DAA): 0.0% | Percent visual injury ([1]; 2240 g ae/ha, 0-1 DAA): 11.8% | Percent visual injury ([1]; 2240 g ae/ha, 7-8 DAA): 3.5% | Percent visual injury ([1]; 2240 g ae/ha, 12-16 DAA): 2.7% | Percent visual injury ([1]; 2240 g ae/ha, 24-32 DAA): 0.1% | crop injury beyond the 7-8 DAA evaluation interval ([1]; 4480 g ae/ha (>4x rate required for weed control)): little crop injury | Percent visual injury ([1]; 4480 g ae/ha, 0-1 DAA): 19.4% | Percent visual injury ([1]; 4480 g ae/ha, 7-8 DAA): 11.0% | Percent visual injury ([1]; 4480 g ae/ha, 12-16 DAA): 5.9% | Percent visual injury ([1]; 4480 g ae/ha, 24-32 DAA): 0.6% | agronomic performance of the event as a result of herbicide application [2]: not altered

CP(=O)(O)CCC(N)C(=O)O (stereo not shown) [glufosinate]
herbicide injury noted in the field experiments ([3]; 542-2168 g ae/ha, with the exception of transient chlorosis at 2168 g ae/ha at 2-4 & 7-9 DAA): no agronomically significant herbicide injury | Percent visual injury ([3]; 542 g ae/ha, 2-4 DAA): 2.7% | Percent visual injury ([3]; 542 g ae/ha, 7-9 DAA): 1.9% | Percent visual injury ([3]; 542 g ae/ha, 13-19 DAA): 0.1% | Percent visual injury ([3]; 542 g ae/ha, 22-29 DAA): 0.0% | Percent visual injury ([3]; 1084 g ae/ha, 2-4 DAA): 6.6% | Percent visual injury ([3]; 1084 g ae/ha, 7-9 DAA): 4.0% | Percent visual injury ([3]; 1084 g ae/ha, 13-19 DAA): 0.2% | Percent visual injury ([3]; 1084 g ae/ha, 22-29 DAA): 0.0% | crop injury beyond the 7-9 DAA evaluation interval ([3]; 2168 g ae/ha (>4x rate required for weed control)): little crop injury | Percent visual injury ([3]; 2168 g ae/ha, 2-4 DAA): 13.5% | Percent visual injury ([3]; 2168 g ae/ha, 7-9 DAA): 10.0% | Percent visual injury ([3]; 2168 g ae/ha, 13-19 DAA): 2.3% | Percent visual injury ([3]; 2168 g ae/ha, 22-29 DAA): 0.3% | agronomic performance of the event as a result of herbicide application [2]: not altered
